Experimental data from US7772241B2, “Variolin derivatives and their use as antitumor agents” (Pharma Mar S.A., priority 2001, dated 2010).
Where two headings read alike, the source gives them in different places.

Experiments:
[1] = Inhibition of cells growth by colorimetric (SRB) assay, HMEC1; settings: human, HMEC1 cells, LC50 H-MEC-1, SRB assay, 48 hours exposure
[2] = tested on: HMEC1; experiment: as above; settings: for TGI H-MEC-1: in M (unit assumed)
[3] = tested on: DU-145; experiment: Inhibition of cells growth by colorimetric (SRB) assay, DU-145; settings: for GI50: read-out: GI50 DU-145, SRB assay, 48 hours exposure
Procedure, shortened: (§1)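 Read-out is sulforhodamine B protein stain (OD 490 nm) after cold TCA fixation, following 48 h continuous exposure to samples spanning 10 to 10^−8 μg/ml.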

[4] = tested on: LoVo; experiment: Inhibition of cells growth by colorimetric (SRB) assay, LoVo; settings: for GI50 / CC50: Homo sapiens, LoVo, 48 h; for GI50: read-out: GI50 LOVO, SRB assay, 48 hours exposure; for CC50: read-out: LC50 LOVO, SRB assay, 48 hours exposure; for TGI LOVO: SRB assay, 48 hours exposure
Procedure, shortened: as §1

[5] = tested on: K-562; experiment: Inhibition of cells growth by colorimetric (SRB) assay, K-562
Procedure, shortened: as §1

[6] = tested on: IGROV-ET; experiment: Inhibition of cells growth by colorimetric (SRB) assay, IGROV-ET; settings: for CC50: read-out: LC50 IGROV-ET, SRB assay, 48 hours exposure
Procedure, shortened: as §1

[7] = tested on: LNCaP; experiment: Inhibition of cells growth by colorimetric (SRB) assay, LNCaP
Procedure, shortened: as §1

[8] = tested on: SK-OV-3; experiment: Inhibition of cells growth by colorimetric (SRB) assay, SK-OV-3; settings: for CC50: read-out: LC50 SKOV-3, SRB assay, 48 hours exposure
Procedure, shortened: as §1

[9] = tested on: PANC-1; experiment: Inhibition of cells growth by colorimetric (SRB) assay, PANC-1; settings: for GI50 / CC50: Homo sapiens, PANC-1, 48 h; for GI50: read-out: GI50 PANC-1, SRB assay, 48 hours exposure; for CC50: read-out: LC50 PANC-1, SRB assay, 48 hours exposure; for TGI PANC-1: SRB assay, 48 hours exposure
Procedure, shortened: as §1

[10] = tested on: A-549; experiment: Inhibition of cells growth by colorimetric (SRB) assay, A-549
Procedure, shortened: as §1

[11] = tested on: LoVo-Dox; experiment: Inhibition of cells growth by colorimetric (SRB) assay, LoVo-Dox; settings: for GI50 / CC50: Homo sapiens, 48 h; for GI50: read-out: GI50 LOVO-DOX, SRB assay, 48 hours exposure; for CC50: read-out: LC50 LOVO-DOX, SRB assay, 48 hours exposure; for TGI LOVO-DOX: SRB assay, 48 hours exposure
Procedure, shortened: as §1

[12] = tested on: SK-MEL-28; experiment: Inhibition of cells growth by colorimetric (SRB) assay, SK-MEL-28; settings: for GI50 / CC50: Homo sapiens, SK-MEL-28, 48 h; for GI50: read-out: GI50 MEL-28, SRB assay, 48 hours exposure; for CC50: read-out: LC50 MEL-28, SRB assay, 48 hours exposure; for TGI MEL-28: SRB assay, 48 hours exposure
Procedure, shortened: as §1

[13] = tested on: HT-29; experiment: Inhibition of cells growth by colorimetric (SRB) assay, HT-29; settings: for GI50 / CC50: Homo sapiens, HT-29, 48 h; for GI50: read-out: GI50 HT-29, SRB assay, 48 hours exposure; for CC50: read-out: LC50 HT-29, SRB assay, 48 hours exposure; for TGI HT-29: SRB assay, 48 hours exposure
Procedure, shortened: as §1

[14] = tested on: SK-BR-3; experiment: Inhibition of cells growth by colorimetric (SRB) assay, SK-BR-3; settings: for GI50: read-out: GI50 SK-BR-3, SRB assay, 48 hours exposure
Procedure, shortened: as §1

[15] = tested on: IGROV-1; experiment: Inhibition of cells growth by colorimetric (SRB) assay, IGROV-1
Procedure, shortened: as §1

[16] = Homo sapiens, HMEC-1, 48 h, read-out: GI50 H-MEC-1, SRB assay, 48 hours exposure
[17] = Homo sapiens, DU-145, 48 h, read-out: LC50 DU-145, SRB assay, 48 hours exposure
[18] = Homo sapiens, K562, 48 h, read-out: GI50 K-562, SRB assay, 48 hours exposure
[19] = Homo sapiens, K562, 48 h, read-out: LC50 K-562, SRB assay, 48 hours exposure
[20] = Homo sapiens, 48 h, read-out: GI50 IGROV-ET, SRB assay, 48 hours exposure
[21] = Homo sapiens, LNCaP, 48 h, read-out: GI50 LN-caP, SRB assay, 48 hours exposure
[22] = Homo sapiens, LNCaP, 48 h, read-out: LC50 LN-caP, SRB assay, 48 hours exposure
[23] = Homo sapiens, SK-OV-3, 48 h, read-out: GI50 SKOV-3, SRB assay, 48 hours exposure
[24] = Homo sapiens, A549, 48 h, read-out: GI50 A-549, SRB assay, 48 hours exposure
[25] = Homo sapiens, A549, 48 h, read-out: LC50 A-549, SRB assay, 48 hours exposure
[26] = Homo sapiens, SK-BR-3, 48 h, read-out: LC50 SK-BR-3, SRB assay, 48 hours exposure
[27] = Homo sapiens, IGROV-1, 48 h, read-out: GI50 IGROV, SRB assay, 48 hours exposure
[28] = Homo sapiens, IGROV-1, 48 h, read-out: LC50 IGROV, SRB assay, 48 hours exposure

CSc1nccc2c(-c3cccs3)c3cccnc3n12 [Compound 60]
CC50 at 48 h [1]: ≥ 33.6 µM | GI50 [2, 16]: 22.6 µM | TGI H-MEC-1 ([2]; SRB assay, 48 hours exposure): 3.36E−05 | GI50 ([3]; Homo sapiens, DU-145, 48 h): ≥ 33.6 µM | CC50 [3, 17]: ≥ 33.6 µM | TGI DU-145 ([3]; SRB assay, 48 hours exposure): 3.36E−05 | GI50 [4]: ≥ 33.6 µM | CC50 [4]: ≥ 33.6 µM | TGI LOVO [4]: 3.36E−05 | GI50 [5, 18]: ≥ 33.6 µM | CC50 [5, 19]: ≥ 33.6 µM | TGI K-562 ([5]; SRB assay, 48 hours exposure): 3.36E−05 | GI50 [6, 20]: ≥ 33.6 µM | CC50 ([6]; Homo sapiens, 48 h): ≥ 33.6 µM | TGI IGROV-ET ([6]; SRB assay, 48 hours exposure): 3.36E−05 | GI50 [7, 21]: ≥ 33.6 µM | CC50 [7, 22]: ≥ 33.6 µM | TGI LN-caP ([7]; SRB assay, 48 hours exposure): 3.36E−05 | GI50 [8, 23]: ≥ 33.6 µM | CC50 ([8]; Homo sapiens, SK-OV-3, 48 h): ≥ 33.6 µM | TGI SKOV-3 ([8]; SRB assay, 48 hours exposure): 3.36E−05 | GI50 [9]: ≥ 33.6 µM | CC50 [9]: ≥ 33.6 µM | TGI PANC-1 [9]: 3.36E−05 | GI50 [10, 24]: 22.6 µM | CC50 [10, 25]: ≥ 33.6 µM | TGI A-549 ([10]; SRB assay, 48 hours exposure): 3.36E−05 | GI50 [11]: ≥ 33.6 µM | CC50 [11]: ≥ 33.6 µM | TGI LOVO-DOX [11]: 3.36E−05 | GI50 [12]: ≥ 33.6 µM | CC50 [12]: ≥ 33.6 µM | TGI MEL-28 [12]: 3.36E−05 | GI50 [13]: ≥ 33.6 µM | CC50 [13]: ≥ 33.6 µM | TGI HT-29 [13]: 3.36E−05 | GI50 ([14]; Homo sapiens, SK-BR-3, 48 h): 0.24 µM | CC50 [14, 26]: 3.36 µM | TGI SK-BR-3 ([14]; SRB assay, 48 hours exposure): 9.95E−07 | GI50 [15, 27]: 10.8 µM | CC50 [15, 28]: ≥ 33.6 µM | TGI IGROV ([15]; SRB assay, 48 hours exposure): 3.36E−05

Nc1nccc2c(-c3cccs3)c3cccnc3n12 [Compound 65]
CC50 at 48 h [1]: ≥ 37.5 µM | GI50 [2, 16]: 11.8 µM | TGI H-MEC-1 ([2]; SRB assay, 48 hours exposure): 3.75E−05 | GI50 ([3]; Homo sapiens, DU-145, 48 h): ≥ 37.5 µM | CC50 [3, 17]: ≥ 37.5 µM | TGI DU-145 ([3]; SRB assay, 48 hours exposure): 3.75E−05 | GI50 [4]: ≥ 37.5 µM | CC50 [4]: ≥ 37.5 µM | TGI LOVO [4]: 3.75E−05 | GI50 [5, 18]: ≥ 37.5 µM | CC50 [5, 19]: ≥ 37.5 µM | TGI K-562 ([5]; SRB assay, 48 hours exposure): 3.75E−05 | GI50 [6, 20]: ≥ 37.5 µM | CC50 ([6]; Homo sapiens, 48 h): ≥ 37.5 µM | TGI IGROV-ET ([6]; SRB assay, 48 hours exposure): 3.75E−05 | GI50 [7, 21]: 17.1 µM | CC50 [7, 22]: ≥ 37.5 µM | TGI LN-caP ([7]; SRB assay, 48 hours exposure): 3.75E−05 | GI50 [8, 23]: ≥ 37.5 µM | CC50 ([8]; Homo sapiens, SK-OV-3, 48 h): ≥ 37.5 µM | TGI SKOV-3 ([8]; SRB assay, 48 hours exposure): 3.75E−05 | GI50 [9]: ≥ 37.5 µM | CC50 [9]: ≥ 37.5 µM | TGI PANC-1 [9]: 3.75E−05 | GI50 [10, 24]: 26.4 µM | CC50 [10, 25]: ≥ 37.5 µM | TGI A-549 ([10]; SRB assay, 48 hours exposure): 3.75E−05 | GI50 [11]: ≥ 37.5 µM | CC50 [11]: ≥ 37.5 µM | TGI LOVO-DOX [11]: 3.75E−05 | GI50 [12]: ≥ 37.5 µM | CC50 [12]: ≥ 37.5 µM | TGI MEL-28 [12]: 3.75E−05 | GI50 [13]: ≥ 37.5 µM | CC50 [13]: ≥ 37.5 µM | TGI HT-29 [13]: 3.75E−05 | GI50 ([14]; Homo sapiens, SK-BR-3, 48 h): 1.46 µM | CC50 [14, 26]: ≥ 37.5 µM | TGI SK-BR-3 ([14]; SRB assay, 48 hours exposure): 3.75E−05 | GI50 [15, 27]: ≥ 37.5 µM | CC50 [15, 28]: ≥ 37.5 µM | TGI IGROV ([15]; SRB assay, 48 hours exposure): 3.75E−05

COc1nccc(-c2c3cccnc3n3c(N)nccc23)n1.Cl [Compound 81]
CC50 at 48 h [1]: 0.858 µM | TGI H-MEC-1 ([2]; SRB assay, 48 hours exposure): 2.62E−07 | GI50 ([2]; read-out: GI50 H-MEC-1, SRB assay, 48 hours exposure): 0.171 µM | GI50 ([3]; Homo sapiens, DU-145, 48 h): 0.928 µM | TGI DU-145 ([3]; SRB assay, 48 hours exposure): 2.40E−06 | CC50 ([3]; read-out: LC50 DU-145, SRB assay, 48 hours exposure): > 30.4 µM | GI50 [4]: 0.224 µM | CC50 [4]: ≥ 30.4 µM | TGI LOVO [4]: 1.77E−06 | TGI K-562 ([5]; SRB assay, 48 hours exposure): 3.29E−07 | GI50 ([5]; read-out: GI50 K-562, SRB assay, 48 hours exposure): 0.0791 µM | CC50 ([5]; read-out: LC50 K-562, SRB assay, 48 hours exposure): 0.523 µM | CC50 ([6]; Homo sapiens, 48 h): ≥ 30.4 µM | TGI IGROV-ET ([6]; SRB assay, 48 hours exposure): 2.28E−07 | GI50 ([6]; read-out: GI50 IGROV-ET, SRB assay, 48 hours exposure): 0.0855 µM | TGI LN-caP ([7]; SRB assay, 48 hours exposure): 2.61E−07 | GI50 ([7]; read-out: GI50 LN-caP, SRB assay, 48 hours exposure): 0.158 µM | CC50 ([7]; read-out: LC50 LN-caP, SRB assay, 48 hours exposure): 2.77 µM | CC50 ([8]; Homo sapiens, SK-OV-3, 48 h): 34.5 µM | TGI SKOV-3 ([8]; SRB assay, 48 hours exposure): 8.52E−06 | GI50 ([8]; read-out: GI50 SKOV-3, SRB assay, 48 hours exposure): 0.797 µM | GI50 [9]: 1 µM | CC50 [9]: ≥ 30.4 µM | TGI PANC-1 [9]: 2.86E−06 | TGI A-549 ([10]; SRB assay, 48 hours exposure): 3.04E−05 | GI50 ([10]; read-out: GI50 A-549, SRB assay, 48 hours exposure): ≥ 30.4 µM | CC50 ([10]; read-out: LC50 A-549, SRB assay, 48 hours exposure): ≥ 30.4 µM | GI50 [11]: 0.706 µM | CC50 [11]: ≥ 30.4 µM | TGI LOVO-DOX [11]: 3.04E−06 | GI50 [12]: 0.313 µM | CC50 [12]: 1.74 µM | TGI MEL-28 [12]: 7.36E−07 | GI50 [13]: 1.3 µM | CC50 [13]: ≥ 30.4 µM | TGI HT-29 [13]: 3.04E−05 | GI50 ([14]; Homo sapiens, SK-BR-3, 48 h): 0.855 µM | TGI SK-BR-3 ([14]; SRB assay, 48 hours exposure): 2.26E−06 | CC50 ([14]; read-out: LC50 SK-BR-3, SRB assay, 48 hours exposure): 9.49 µM | TGI IGROV ([15]; SRB assay, 48 hours exposure): 2.70E−06 | GI50 ([15]; read-out: GI50 IGROV, SRB assay, 48 hours exposure): 0.21 µM | CC50 ([15]; read-out: LC50 IGROV, SRB assay, 48 hours exposure): 20.5 µM
